Data from US10464927B2, “2,4-disubstituted pyrimidines as CDK inhibitors” (Shanghai Xunhe Pharmaceutical Technology Co. Ltd., priority 2016, dated 2019).

Legend:
[1] = molecular target: CDK4 (Homo sapiens (Human), UniProt P11802); experiment: CDK4 protein kinase activity, Caliper mobility shift assay; format: biochemical; conditions: GST-CDK4(1-303 end), substrate Peptide FAM-P8, 28° C. for 3 h
Protocol: (§1) activity assay: The CDK4 protein kinase activity was measured using the Caliper mobility shift assay (see J. Biomol. Screen, 2009, PP31). The test compound was dissolved in DMSO and diluted with a kinase buffer solution (20 mM HEPES-pH 7.5, 0.01% Triton X-100, 10 mM MgCl2, 2 mM DTT) and 5 μL of compound at 5-fold final concentration of reaction dissolved in 10% DMSO was added in a 384-well plate. The compound-free control well was 5 μL of 10% DMSO, and the no-activity control well was 5 μL of kinase buffer. 10 μL of a 2.5-fold diluted CDK4 enzyme solution (GST-CDK4(1-303 end)) was added and incubated at room temperature for 10 min, and then 10 μL of the 2.5-fold diluted substrate solution Peptide FAM-P8 was added. The reaction was stopped by adding 25 μL of stop solution after incubation at 28° C. for 3 h, and the conversion rate data was read on a Caliper EZ Reader II (Caliper Life Sciences) and the conversion rate was converted to inhibition rate data according to above method. Among them, the inhibition rate %=(max−conversion)/(max−min)×100%.

[2] = molecular target: CDK6 (Homo sapiens (Human), UniProt Q00534); experiment: CDK6 protein kinase activity, Caliper mobility shift assay; format: biochemical; conditions: GST-CDK6(1-326 end), substrate Peptide FAM-P8, 28° C. for 3 h
Protocol: as §1, with “Activity Assay:” for “activity assay:”, “CDK6” for “CDK4”, “(GST-CDK6(1-326” for “(GST-CDK4(1-303”

Chain of CDK4 (P11802 whole entry): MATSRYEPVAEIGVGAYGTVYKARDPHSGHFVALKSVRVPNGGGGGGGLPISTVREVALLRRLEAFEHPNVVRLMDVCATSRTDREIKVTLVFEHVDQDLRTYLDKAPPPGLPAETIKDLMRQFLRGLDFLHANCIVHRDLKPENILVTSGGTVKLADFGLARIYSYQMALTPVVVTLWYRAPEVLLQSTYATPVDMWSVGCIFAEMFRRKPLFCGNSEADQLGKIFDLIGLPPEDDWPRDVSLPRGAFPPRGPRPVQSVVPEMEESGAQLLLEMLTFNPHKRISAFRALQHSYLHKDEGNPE
Chain of CDK4 (P30281 whole entry partner): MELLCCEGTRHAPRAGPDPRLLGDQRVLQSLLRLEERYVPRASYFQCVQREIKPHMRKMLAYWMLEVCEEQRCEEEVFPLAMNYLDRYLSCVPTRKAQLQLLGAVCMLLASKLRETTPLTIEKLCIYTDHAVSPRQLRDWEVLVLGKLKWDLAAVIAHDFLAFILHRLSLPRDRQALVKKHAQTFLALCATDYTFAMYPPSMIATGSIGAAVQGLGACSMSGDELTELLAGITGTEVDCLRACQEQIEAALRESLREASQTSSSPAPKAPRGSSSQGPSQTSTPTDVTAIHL
Chain of CDK6 (Q00534 whole entry): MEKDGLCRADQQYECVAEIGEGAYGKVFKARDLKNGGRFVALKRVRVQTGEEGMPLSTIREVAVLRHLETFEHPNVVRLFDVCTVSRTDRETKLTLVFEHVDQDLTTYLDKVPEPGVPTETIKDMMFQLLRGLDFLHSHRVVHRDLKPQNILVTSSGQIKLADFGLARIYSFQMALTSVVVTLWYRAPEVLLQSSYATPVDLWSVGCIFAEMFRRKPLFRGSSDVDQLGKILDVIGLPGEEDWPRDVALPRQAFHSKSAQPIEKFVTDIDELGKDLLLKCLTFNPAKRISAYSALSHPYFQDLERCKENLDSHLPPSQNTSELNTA
Chain of CDK6 (P30281 whole entry partner): as the sequence (P30281 whole entry partner) above

Row | IC50 [1] [nM] | IC50 [2] [nM] | SMILES
1 | ≤ 20 | ≤ 20 | CCN1CCN(Cc2ccc(Nc3ncc(F)c(-c4ccc5c(ccn5C(C)C)c4)n3)nc2)CC1 [Compound I-1, N-(5-(4-ethylpiperazine-1-methyl)-pyridin-2-yl)-5-fluoro-4-(1-isopropyl-1H-indol-5-yl)-pyrimidin-2-amine]
2 | ≤ 20 | ≤ 20 | CC(C)n1ccc2cc(-c3nc(Nc4ccc(N5CCNCC5)cn4)ncc3F)ccc21 [Compound I-2, N-(5-(piperazin-1-yl)-pyridin-2-yl)-5-fluoro-4-(1-isopropyl-1H-indol-5-yl)pyrimidine 2-amine]
3 | ≤ 20 | ≤ 20 | Cc1c2ccc(-c3nc(Nc4ccc(N5CCNCC5)cn4)ncc3F)cc2nn1C [Compound I-5, N-(5-(piperazin-1-yl)-pyridin-2-yl)-5-fluoro-4-(2,3-dimethyl-2H-indazol-6-yl)pyrimidin-2-amine]
4 | ≤ 20 | 20 to 100 | CCN1CCN(Cc2ccc(Nc3ncc(F)c(-c4ccc5nnc(C(C)C)n5c4)n3)nc2)CC1 [Compound I-6, N-(5-(4-ethylpiperazine-1-methyl)-pyridin-2-yl)-5-fluoro-4-(3-isopropyl-[1,2,4]triazolo[4,3-a]pyridin-6-yl)pyrimidin-2-amine]
5 | ≤ 20 | ≤ 20 | CC(C)c1nnc2ccc(-c3nc(Nc4ccc(N5CCNCC5)cn4)ncc3F)cn12 [Compound I-7, N-(5-(piperazin-1-yl)-pyridin-2-yl)-5-fluoro-4-(3-isopropyl-[1,2,4]triazolo[4,3-a]pyridine-6-yl)pyrimidin-2-amine]
6 | ≤ 20 | 20 to 100 | Cc1nc2cnc(-c3nc(Nc4ccc(N5CCNCC5)cn4)ncc3F)nc2n1C(C)C [Compound I-8, N-(5-(piperazin-1-yl)-pyridin-2-yl)-5-fluoro-4-(9-isopropyl-8-methyl-9H-purin-2-yl)pyrimidin-2-amine]
7 | 20 to 100 | 20 to 100 | CCN1CCN(Cc2ccc(Nc3ncc(F)c(-c4ncc5nc(C)n(C(C)C)c5n4)n3)nc2)CC1 [Compound I-9, N-(5-(4-ethylpiperazine-1-methyl)-pyridin-2-yl)-5-fluoro-4-(9-isopropyl-8-methyl-9H-purin-2-yl)pyrimidin-2-amine]
8 | ≤ 20 | 20 to 100 | CC(C)n1c(C(=O)N(C)C)c(F)c2c(-c3nc(Nc4ccc(N5CCNCC5)cn4)ncc3F)ncnc21 [Compound I-10, N-(5-(piperazin-1-yl)-pyridin-2-yl)-5-fluoro-4-(5-fluoro-6-formic acid diformamido-7-isopropyl-7H-pyrrolo[2,3-d]pyrimidin-4-yl)pyrimidin-2-amine]
9 | ≤ 20 | 100 to 500 | CCN1CCN(Cc2ccc(Nc3ncc(F)c(-c4ncnc5c4cc(C)n5C4CCCC4)n3)nc2)CC1 [Compound I-11, N-(5-(4-ethylpiperazine-1-methyl)-pyridin-2-yl)-5-fluoro-4-(6-methyl-7-cyclopentyl-7H-pyrrolo[2,3-d]pyrimidin-4-yl)pyrimidin-2-amine]
10 | ≤ 20 | ≤ 20 | Cn1nc2nc(-c3nc(Nc4ccc(N5CCNCC5)cn4)ncc3F)ccc2c1C1CCCC1 [Compound I-12, N-(5-(piperazin-1-yl)-pyridin-2-yl)-5-fluoro-4-(2-methyl-3-cyclopentyl-2H-7-azaindazol-6-yl)pyrimidin-2-amine]
11 | ≤ 20 | ≤ 20 | CN(C)C(=O)c1cc2cc(-c3nc(Nc4ccc(N5CCNCC5)cn4)ncc3F)ccc2n1C1CCCC1 [Compound I-14, N-(5-(piperazin-1-yl)-pyridin-2-yl)-5-fluoro-4-(1-cyclopentyl-2-formic acid diformamido-1H-indol-5-yl)pyrimidin-2-amine]
12 | 100 to 500 | 20 to 100 | CCC(CC)n1c(C(C)=O)cc2cc(-c3nc(Nc4ccc(CN5CCN(C)CC5)cn4)ncc3Cl)ccc21 [Compound I-15, N-(5-(4-methylpiperazine-1-methyl)-pyridin-2-yl)-5-chloro-4-(1-(3-pentyl)-2-acetyl-1H-indol-5-yl)pyrimidin-2-amine]
13 | ≤ 20 | ≤ 20 | Cc1c(C(F)(F)F)c2cc(-c3ccnc(Nc4ccc(CN5CCN(C(C)C)CC5)cn4)n3)ccc2n1C [Compound I-16, N-(5-(4-isopropylpiperazin-1-methyl)-pyridin-2-yl)-4-(1,2-dimethyl-3-trifluoromethyl-1H-indol-5-yl)pyrimidin-2-amine]
14 |  | 20 to 100 | CC(C)c1c(C#N)n(C2CC2)c2ccc(-c3nc(Nc4ccc(CN5CCN(C6CC6)CC5)cn4)ncc3F)cc12 [Compound I-17, N-(5-(4-cyclopropylpiperazine-1-methyl)-pyridin-2-yl)-5-fluoro-4-(1-cyclopropyl-2-cyano-3-isopropyl-1H-indol-5-yl)pyrimidin-2-amine]
15 | ≤ 20 | ≤ 20 | Fc1cnc(Nc2ccc(CN3CCN(C4CCCCCC4)CC3)cn2)nc1-c1ccc2c(c1)c(C1CC1)cn2C1CCC1 [Compound I-18, N-(5-(4-cycloheptylpiperazine-1-methyl)-pyridin-2-yl)-5-fluoro-4-(1-cyclobutyl-3-cyclopropyl-1H-indol-5-yl)pyrimidin-2-amine]
16 | ≤ 20 | > 500 | Fc1cnc(Nc2ccc(CN3CCN(C4CCCCC4)CC3)cn2)nc1-c1ccc2c(c1)c(C1CCC1)cn2C1CCCCC1 [Compound I-19, N-(5-(4-cyclohexylpiperazin-1-methyl)-pyridin-2-yl)-5-fluoro-4-(1-cyclohexyl-3-cyclobutyl-1H-indol-5-yl)pyrimidin-2-amine]
17 | ≤ 20 | 20 to 100 | CC(C)n1c(C2CCCC2)cc2cc(-c3nc(Nc4ccc(N5CCN(C6CCC6)CC5)cn4)ncc3F)ccc21 [Compound I-21, N-(5-(4-cyclobutylpiperazin-1-yl)-pyridin-2-yl)-5-fluoro-4-(1-isopropyl-2-cyclopentyl-1H-indol-5-yl)pyrimidin-2-amine]
18 | ≤ 20 | ≤ 20 | CCN1CCN(Cc2ccc(Nc3ncc(F)c(-c4ccc5c(c4)cc(C(=O)N(C)C)n5C4CCCC4)n3)nc2)CC1 [Compound I-22, N-(5-(4-ethylpiperazine-1-methyl)-pyridin-2-yl)-5-fluoro-4-(1-cyclopentyl-2-formic acid diformamido-1H-indol-5-yl)pyrimidin-2-amine]
19 | ≤ 20 | ≤ 20 | CC(=O)c1cc2cc(-c3nc(Nc4ccc(N5CCNCC5)cn4)ncc3F)ccc2n1C(C)C [Compound I-23, N-(5-(piperazin-1-yl)-pyridin-2-yl)-5-fluoro-4-(1-isopropyl-2-acetyl-1H-indol-5-yl)pyrimidin-2-amine]
20 | ≤ 20 | ≤ 20 | CCN1CCN(Cc2ccc(Nc3ncc(F)c(-c4ccc5c(c4)cc(C(C)=O)n5C(C)C)n3)nc2)CC1 [Compound I-24, N-(5-(4-ethylpiperazine-1-methyl)-pyridin-2-yl)-5-fluoro-4-(1-isopropyl-2-acetyl-1H-indol-5-yl)pyrimidin-2-amine]
21 | ≤ 20 | ≤ 20 | CC(C)n1c(C(=O)N(C)C)cc2nc(-c3nc(Nc4ccc(N5CCNCC5)cn4)ncc3F)ccc21 [Compound I-25, N-(5-(piperazin-1-yl)-pyridin-2-yl)-5-fluoro-4-(1-isopropyl-2-formic acid diformamido-1H-4-azaindol-5-yl)pyrimidin-2-amine]
22 |  | 20 to 100 | CC(C)c1c2ccc(-c3nc(Nc4ccc(N5CCNCC5)cn4)ncc3F)c(Cl)c2nn1C [Compound I-30, N-(5-(piperazin-1-yl)-pyridin-2-yl)-5-fluoro-4-(2-methyl-3-isopropyl-2H-7-chloro-indazol-6-yl)pyrimidin-2-amine]

Row | SMILES | IC50 [1] [nM] | IC50 [2] [nM]
23 | CC(=O)c1cn(C2CCCC2)c2ccc(-c3nc(Nc4ccc(N5CCNCC5)cn4)ncc3F)cc12 [Compound I-3, N-(5-(piperazin-1-yl)-pyridin-2-yl)-5-fluoro-4-(1-cyclopentyl-3-acetyl-1H-indol-5-yl)pyrimidin-2-amine] | ≤ 20 | ≤ 20
24 | CCN1CCN(Cc2ccc(Nc3ncc(F)c(-c4ccc5c(c4)c(C(C)=O)cn5C4CCCC4)n3)nc2)CC1 [Compound I-4, N-(5-(4-ethylpiperazine-1-methyl)-pyridin-2-yl)-5-fluoro-4-(1-cyclopentyl-3-acetyl-1H-indol-5-yl)pyrimidin-2-amine] | ≤ 20 | 20 to 100
25 | CC(=O)c1cn(C2CCCCCC2)c2ccc(-c3nc(Nc4ccc(CN5CCN(C6CCCC6)CC5)cn4)ncc3F)cc12 [Compound I-20, N-(5-(4-cyclopentylpiperazin-1-methyl)-pyridin-2-yl)-5-fluoro-4-(1-cycloheptyl-3-acetyl-1H-indol-5-yl)pyrimidin-2-amine] | ≤ 20 | ≤ 20
